The target of one assay is T1, α4β1 (Homo sapiens, UniProt P05556+P13612).
T1 construct: Ramos Cell Adhesion Assay (α4β1 Mediated Adhesion/VCAM-1); endogenous in cells; host or cells: Ramos cells
Put plainly: Ramos Cell Adhesion Assay (α4β1 Mediated Adhesion/VCAM-1). The class given is cell-based. The following applies: Ramos cell adhesion to hVCAM-1; read-out: α4β1 IC50. The protocol:
Ramos Cell Adhesion Assay (α4β1 Mediated Adhesion/VCAM-1)
Immulon 96 well plates (Dynex) were coated with 100 μL recombinant hVCAM-1 at 4.0 μg/mL in 0.05 M NaCO3 buffer pH 9.0 overnight at 4° C. (R&D Systems). Plates were washed 2 times in PBS with 1% BSA and blocked for 1 h @ room temperature in this buffer. PBS was removed and compounds to be tested (50 μL) were added at 2× concentration. Ramos cells, (50 μL at 2×10^6/mL) labeled with 5 μM Calcein AM (Molecular Probes) for 1 h at 37° C., were added to each well and allowed to adhere for 1 h at room temperature. Plates were washed 4× in PBS+1% BSA and cells were lysed for 15 minutes in 100 μL of 1 M Tris pH 8.0 with 1% SDS.

The target of another assay is T2, human α4β7 integrin (Homo sapiens, UniProt P13612+P26010).
T2 construct: expressed in transfected cells; host or cells: K562 cells, stably transfected
T2 sequence (P13612 34-1032): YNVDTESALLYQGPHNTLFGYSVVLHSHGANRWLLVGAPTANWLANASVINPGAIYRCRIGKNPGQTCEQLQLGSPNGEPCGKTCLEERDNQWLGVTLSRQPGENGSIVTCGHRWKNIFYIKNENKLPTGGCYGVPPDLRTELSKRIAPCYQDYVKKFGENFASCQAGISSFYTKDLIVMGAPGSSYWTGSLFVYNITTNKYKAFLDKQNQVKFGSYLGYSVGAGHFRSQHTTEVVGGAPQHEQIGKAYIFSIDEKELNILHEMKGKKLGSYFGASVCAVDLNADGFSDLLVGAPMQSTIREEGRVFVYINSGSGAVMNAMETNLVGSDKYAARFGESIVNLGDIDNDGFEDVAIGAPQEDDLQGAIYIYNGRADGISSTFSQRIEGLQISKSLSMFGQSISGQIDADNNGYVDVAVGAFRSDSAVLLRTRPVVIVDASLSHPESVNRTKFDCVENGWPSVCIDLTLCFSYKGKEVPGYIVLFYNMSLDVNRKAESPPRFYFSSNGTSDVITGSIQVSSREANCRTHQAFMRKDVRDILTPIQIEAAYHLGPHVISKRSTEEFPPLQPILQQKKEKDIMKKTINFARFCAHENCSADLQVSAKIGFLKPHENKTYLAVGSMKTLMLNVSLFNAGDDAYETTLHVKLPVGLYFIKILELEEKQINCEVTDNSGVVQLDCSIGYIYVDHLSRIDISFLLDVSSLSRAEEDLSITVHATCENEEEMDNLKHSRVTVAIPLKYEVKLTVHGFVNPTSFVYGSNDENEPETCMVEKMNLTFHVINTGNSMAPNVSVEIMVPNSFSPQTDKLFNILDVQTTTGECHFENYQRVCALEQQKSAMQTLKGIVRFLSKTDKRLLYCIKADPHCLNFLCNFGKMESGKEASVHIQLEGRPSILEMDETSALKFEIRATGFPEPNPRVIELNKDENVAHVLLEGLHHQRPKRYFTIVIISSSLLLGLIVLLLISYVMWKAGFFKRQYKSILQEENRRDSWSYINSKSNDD
T2 sequence (P26010 20-798): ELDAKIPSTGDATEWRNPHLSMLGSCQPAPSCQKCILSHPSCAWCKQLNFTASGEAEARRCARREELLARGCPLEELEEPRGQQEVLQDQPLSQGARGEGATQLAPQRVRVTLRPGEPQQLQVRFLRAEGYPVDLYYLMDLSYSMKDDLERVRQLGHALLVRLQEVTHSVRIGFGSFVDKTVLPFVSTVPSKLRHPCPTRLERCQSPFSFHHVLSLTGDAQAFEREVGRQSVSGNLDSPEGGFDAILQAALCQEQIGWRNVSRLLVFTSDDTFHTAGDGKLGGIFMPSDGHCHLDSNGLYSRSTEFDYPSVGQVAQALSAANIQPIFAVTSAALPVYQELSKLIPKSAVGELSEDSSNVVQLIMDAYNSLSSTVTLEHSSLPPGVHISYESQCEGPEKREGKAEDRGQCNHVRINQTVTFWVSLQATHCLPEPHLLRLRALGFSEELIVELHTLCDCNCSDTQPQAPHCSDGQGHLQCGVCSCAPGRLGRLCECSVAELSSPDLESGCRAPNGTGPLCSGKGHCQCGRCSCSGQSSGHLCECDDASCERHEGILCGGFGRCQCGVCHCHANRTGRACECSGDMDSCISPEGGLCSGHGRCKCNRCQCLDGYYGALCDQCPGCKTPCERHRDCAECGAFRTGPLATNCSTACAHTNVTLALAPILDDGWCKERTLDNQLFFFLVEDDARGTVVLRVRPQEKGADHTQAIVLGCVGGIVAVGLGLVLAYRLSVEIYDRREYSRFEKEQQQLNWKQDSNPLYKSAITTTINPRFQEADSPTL
Put plainly: α4β7-K562 Cell Adhesion Assay (α4β7 Mediated Adhesion/MAdCAM-1). In kind it is cell-based. The following applies: α4β7-K562 cell adhesion to hMAdCAM-1; read-out: α4β7 IC50. The protocol: α4β7-K562 Cell Adhesion Assay (α4β7 Mediated Adhesion/MAdCAM-1)
M2 anti-FLAG Antibody Coated 96-well plates (Sigma) were coated for 1 hour at 4° C. with 2-8 μl/well recombinant FLAG-hMAdCAM-1 contained in 100 μL of Dulbecco's PBS, pH 7.4, with 1% BSA and 1 mM Mn ^+2 (PBS-BSA-Mn). Plates were washed once with PBS-BSA-Mn. Buffer was removed and compounds to be tested (50 μL) were added at 2× concentration. Stably transfected K562 cells expressing human α4β7 integrin, (50 μL at 2×10^6/mL) that had been labeled with 100 μg/ml carboxymethyl fluorescein diacetate succinimidyl ester (CFDA-SE; Molecular Probes) for 15 min at 37° C. were added to each well and allowed to adhere for 1 h at room temperature. Plates were washed 4× in PBS-BSA-Mn and then cells were lysed for 2 minutes by addtion of 100 μL of PBS without Ca, Mg supplemented with 0.1 M NaOH.

T1 sequence (P05556 21-798, one chain of several): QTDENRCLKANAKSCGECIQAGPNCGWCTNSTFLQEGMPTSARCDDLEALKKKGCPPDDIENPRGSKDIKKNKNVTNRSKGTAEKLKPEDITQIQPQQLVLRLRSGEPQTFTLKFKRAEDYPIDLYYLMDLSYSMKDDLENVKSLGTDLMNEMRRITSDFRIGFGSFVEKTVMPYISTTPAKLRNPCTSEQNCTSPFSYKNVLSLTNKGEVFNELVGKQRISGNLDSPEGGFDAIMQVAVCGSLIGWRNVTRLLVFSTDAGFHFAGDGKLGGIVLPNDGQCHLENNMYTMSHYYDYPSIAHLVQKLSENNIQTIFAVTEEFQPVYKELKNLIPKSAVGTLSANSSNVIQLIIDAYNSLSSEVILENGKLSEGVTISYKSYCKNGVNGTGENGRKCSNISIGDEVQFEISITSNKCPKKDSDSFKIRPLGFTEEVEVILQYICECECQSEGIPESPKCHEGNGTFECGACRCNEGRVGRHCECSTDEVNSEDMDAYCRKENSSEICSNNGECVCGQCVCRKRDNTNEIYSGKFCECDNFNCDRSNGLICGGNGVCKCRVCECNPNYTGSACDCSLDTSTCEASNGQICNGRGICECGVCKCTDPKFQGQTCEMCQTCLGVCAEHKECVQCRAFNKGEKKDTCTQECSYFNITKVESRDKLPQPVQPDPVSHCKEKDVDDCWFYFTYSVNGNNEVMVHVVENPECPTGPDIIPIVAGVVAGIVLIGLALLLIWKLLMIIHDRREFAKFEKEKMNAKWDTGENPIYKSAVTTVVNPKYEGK

One may read the IC50 as the point on the concentration scale where inhibition reaches its midpoint. Consider `Cn1ncc(OCc2cccnc2)c(-c2ccc(C[C@H](NC(=O)c3c(Cl)cccc3Cl)C(=O)O)cc2)c1=O` [Cpd 25], for which the IC50 came to 133 nM at α4β1 and 5 nM on human α4β7 integrin.
In the same order, the values of `COc1cnn(C)c(=O)c1-c1ccc(C[C@H](NC(=O)[C@H](NC2CCCCC2)C(C)C)C(=O)O)cc1` [Cpd 28] are 2620 nM and 5 nM.
Turning to `CCn1ncc(N2CCOCC2)c(-c2ccc(C[C@H](NC(=O)c3c(Cl)cccc3Cl)C(=O)O)cc2)c1=O` [Cpd 29], the values for the IC50 at α4β1 and on human α4β7 integrin were over 1000 nM and 6 nM, respectively.
With `COc1cnn(C)c(=O)c1-c1ccc(C[C@H](NC(=O)c2c(Cl)cccc2Cl)C(=O)OCCN(C)C)cc1` [Cpd 34], the IC50 came to 250 nM on α4β1 and 8 nM on human α4β7 integrin.
As for `C=CCNc1cnn(CC(C)=O)c(=O)c1-c1ccc(C[C@H](NC(=O)c2c(Cl)cccc2Cl)C(=O)O)cc1` [Cpd 36], the IC50 at α4β1 turned out to be 1310 nM; on human α4β7 integrin, 9 nM.
As for `Cn1ncc(OCC(F)(F)F)c(-c2ccc(C[C@H](NC(=O)c3c(Cl)cccc3Cl)C(=O)O)cc2)c1=O` [Cpd 37], the values for the IC50 at α4β1 and at human α4β7 integrin were 474 nM and 9 nM, respectively.
For `COc1cnn(C)c(=O)c1-c1ccc(C[C@H](NC(=O)C2(C(N)=O)CC2)C(=O)O)cc1` [Cpd 38], the results for the IC50 at α4β1 and at human α4β7 integrin were over 5000 nM and 9 nM, respectively.
For the molecule `COc1cnn(CC(F)(F)F)c(=O)c1-c1ccc(C[C@H](NC(=O)c2c(Cl)cccc2Cl)C(=O)O)cc1` [Cpd 39], the IC50 at α4β1 stood at 588 nM; at human α4β7 integrin, 10 nM.
Take `COc1cnn(C)c(=O)c1-c1ccc(C[C@H](NC(=O)C2(NC3CCCCC3)CC2)C(=O)O)cc1` [Cpd 40]: the IC50 is over 5000 nM at α4β1 and 38 nM on human α4β7 integrin.
For the molecule `Cn1ncc(OC2CCCCC2)c(-c2ccc(C[C@H](NC(=O)c3c(Cl)cccc3Cl)C(=O)O)cc2)c1=O` [Cpd 41], the IC50 on α4β1 was 152 nM; on human α4β7 integrin it was 11 nM.
As to `COc1cnn(C)c(=O)c1-c1ccc(C[C@H](NC(=O)C2(NC(C)C)CCOCC2)C(=O)O)cc1` [Cpd 42], the IC50 stood at 936 nM at α4β1 and 59 nM on human α4β7 integrin.
As for `O=C(N[C@@H](Cc1ccc(-c2c(OC3CCCC3)cnn(CCO)c2=O)cc1)C(=O)O)c1c(Cl)cccc1Cl` [Cpd 43], the IC50 is 437 nM at α4β1 and 12 nM at human α4β7 integrin.
In the same order, the values of `COc1cnn(C)c(=O)c1-c1ccc(C[C@H](NC(=O)[C@H](C(C)C)N(C)C(=O)OC(C)(C)C)C(=O)O)cc1` [Cpd 48] are 974 nM and 13 nM.
For `Cn1ncc(Cl)c(-c2ccc(C[C@H](NC(=O)c3c(Cl)cccc3Cl)C(=O)O)cc2)c1=O` [Cpd 49], the IC50 was found to be 486 nM on α4β1 and 14 nM at human α4β7 integrin.
Regarding `COc1cnn(C)c(=O)c1-c1ccc(C[C@H](NC(=O)[C@@H](C)N(C)C(=O)Cc2ccsc2)C(=O)O)cc1` [Cpd 50], the IC50 on α4β1 is 229 nM; at human α4β7 integrin, 14 nM.
In the same order, the values of `Cn1ncc(N2CCCC2)c(-c2ccc(C[C@H](NC(=O)c3c(Cl)cccc3Cl)C(=O)O)cc2)c1=O` [Cpd 51] are 113 nM and 16 nM.
Take `Cn1ncc(OCc2ccccc2)c(-c2ccc(C[C@H](NC(=O)c3c(Cl)cccc3Cl)C(=O)O)cc2)c1=O` [Cpd 52]: the values for the IC50 on α4β1 and on human α4β7 integrin were 663 nM and 17 nM, respectively.
For `O=C(N[C@@H](Cc1ccc(-c2c(OC3CCC3)cnn(CCO)c2=O)cc1)C(=O)O)c1c(Cl)cccc1Cl` [Cpd 53], the IC50 was determined as 269 nM on α4β1 and 17 nM at human α4β7 integrin.
With `COc1cnn(-c2ccccc2)c(=O)c1-c1ccc(C[C@H](NC(=O)c2c(Cl)cccc2Cl)C(=O)O)cc1` [Cpd 56], the half-maximal inhibitory concentration (IC50) came to 3860 nM at α4β1 and 18 nM on human α4β7 integrin.
In the same order, the values of `Cn1ncc(OC2CCCC2)c(-c2ccc(C[C@H](NC(=O)c3c(Cl)cccc3Cl)C(=O)O)cc2)c1=O` [Cpd 60] are 155 nM and 20 nM.
`Cn1ncc(O)c(-c2ccc(C[C@H](NC(=O)c3c(Cl)cncc3Cl)C(=O)O)cc2)c1=O` [Cpd 62]: the IC50 at α4β1 turned out to be 40 nM; at human α4β7 integrin it was 21 nM.
Regarding `CS(=O)(=O)c1ccc(-c2cnn(CC3CC3)c(=O)c2-c2ccc(C[C@H](NC(=O)c3c(Cl)cccc3Cl)C(=O)O)cc2)cc1` [Cpd 65], the results for the IC50 on α4β1 and on human α4β7 integrin were 4220 nM and 21 nM, respectively.
Turning to `CN[C@H](C(=O)N[C@@H](Cc1ccc(-c2c(OC)cnn(C)c2=O)cc1)C(=O)O)[C@@H](C)OCc1ccccc1` [Cpd 68], the results for the IC50 on α4β1 and on human α4β7 integrin were 473 nM and 24 nM, respectively.
Consider `CN1CCC(Oc2cnn(CCO)c(=O)c2-c2ccc(C[C@H](NC(=O)c3c(Cl)cccc3Cl)C(=O)O)cc2)C1` (stereo partly drawn) [Cpd 72], for which the results for the IC50 at α4β1 and on human α4β7 integrin were 190 nM and 26 nM, respectively.
For `CC(C)Oc1cnn(C)c(=O)c1-c1ccc(C[C@H](NC(=O)c2c(Cl)cccc2Cl)C(=O)O)cc1` [Cpd 74] the same measures were 135 nM and 27 nM.
In the same order, the values of `COc1cnn(C)c(=O)c1-c1ccc(C[C@H](NC(=O)c2c(Cl)cccc2Cl)C(=O)OCCCl)cc1` [Cpd 75] are over 5000 nM and 28 nM.
On to `CSc1cnn(C(C)(C)C)c(=O)c1-c1ccc(C[C@H](NC(=O)c2c(Cl)cccc2Cl)C(=O)O)cc1` [Cpd 78], for which the IC50 came out at 5610 nM at α4β1 and 36 nM on human α4β7 integrin.
Turning to `COc1cnn(C)c(=O)c1-c1ccc(C[C@H](NC(=O)C2(n3c(C)ccc3C)CC2)C(=O)O)cc1` [Cpd 80], the IC50 at α4β1 was over 5000 nM; at human α4β7 integrin it was 228 nM.
For `COc1cnn(C)c(=O)c1-c1ccc(C[C@H](NC(=O)[C@H](NC(=O)OC(C)(C)C)C(C)C)C(=O)O)cc1` [Cpd 81, (R)-2-(2-tert-Butoxycarbonylamino-3-methyl-butyrylamino)-3-(S)-[4-(5-methoxy-2-methyl-3-oxo-2,3-dihydro-pyridazin-4-yl)-phenyl]-propionic acid] the same measures were 987 nM and 39 nM.
For `COc1cn[nH]c(=O)c1-c1ccc(C[C@H](NC(=O)c2c(Cl)cccc2Cl)C(=O)O)cc1` [Cpd 83], the IC50 on α4β1 was 1020 nM; at human α4β7 integrin, 41 nM.
